The numbers were not newly measured in US20240398763A1, “ORAL DOSAGE FORM CONTAINING ONCOLOGICAL ACTIVE INGREDIENT” (OWP Pharmaceuticals, Inc., priority 2023, published 2024), which cites them from elsewhere.

Converted amounts (≈) assume the structure as drawn. Counter-ions that a name gives are not always drawn.

For the first series the following is noted: all pH solutions.
As to `Nc1cccc2c1C(=O)N(C1CCC(=O)NC1=O)C2=O` (centres unmarked) [pomalidomide], the Solubility is approximately 0.01 mg/mL (≈ 36.6 µM).

The same series, now with this note: approximate pH 5.0 and above.
For `CCOc1cc2ncc(C#N)c(Nc3ccc(OCc4ccccn4)c(Cl)c3)c2cc1NC(=O)/C=C/CN(C)C` [neratinib], the Solubility result was “(0.08 mg/mL or less)”.

The series is the same for the next values; noted with them: aqueous media over the range pH 1.1 to pH 7.8.
Take `CNC(=O)c1ccccc1Sc1ccc2c(/C=C/c3ccccn3)n[nH]c2c1` [axitinib]: the Solubility entry is reported as “excess of 0.2 μg/mL”.

The same series, now with this note: aqueous media, pH 1.99.
Take `CO[C@]1(C(=O)N[C@@H](C)c2ccc(-n3cc(F)cn3)nc2)CC[C@H](c2nc(C)cc(Nc3cc(C)[nH]n3)n2)CC1` [pralsetinib]: the Solubility is 0.880 mg/mL to.

Staying with this series, now noted: aqueous media, pH 7.4.
Consider `C=C(F)C(=O)N1CCN(c2nc(OC[C@@H]3CCCN3C)nc3c2CCN(c2cccc4cccc(Cl)c24)C3)C[C@@H]1CC#N` [adagrasib], for which the Solubility entry is on record as “to <0.010 mg/mL”.

Still in this series, the particulars now being: aqueous solutions across physiological pH range (pH 1.2 and 7.4).
As for `CC(C)(O)CNc1nc(Nc2ccnc(C(F)(F)F)c2)nc(-c2cccc(C(F)(F)F)n2)n1` [enasidenib], the Solubility result is “(solubility ≤74 mcg/mL)”.

Staying with this series, now noted: at 25° C.
For `CC(C)(C#N)c1cc(Cn2cncn2)cc(C(C)(C)C#N)c1` [anastrozole, α,α,α′,α′-tetramethyl-5-(1H-1,2,4-triazol-1-ylmethyl)-1,3-benzenediacetonitrile, reference compound], the Solubility result is listed as “solubility (0.5 mg/mL”. `CCCCCOC(=O)Nc1nc(=O)n([C@@H]2O[C@H](C)C(O)C2O)cc1F` (stereo partly drawn) [capecitabine, pentyl ester [1-(5-deoxy-β-d-ribofuranosyl)-5-fluoro-1,2-dihydro-2-oxo-4-pyrimidinyl]-carbamic acid, reference compound]: the Solubility was 6 mg/mL at 25 °C.

The same series, now with this note: at 37° C., in words.
For the molecule `O=C(Nc1cnn2ccc(N3CCC[C@@H]3c3cc(F)ccc3F)nc12)N1CC[C@H](O)C1` [larotrectinib], the Aqueous solubility entry is reported as “freely soluble at pH 6.8)”.

The series is the same for the next values; noted with them: condition not given.
Take `Nc1ncn([C@H]2C[C@H](O)[C@@H](CO)O2)c(=O)n1` [decitabine]: the Solubility is given as 22.5 mg/mL; unknown. As for `Nc1nc(F)nc2c1ncn2[C@@H]1O[C@H](COP(=O)(O)O)[C@@H](O)[C@@H]1O` [fludarabine phosphate], the Solubility is recorded as 3 mg/mL. Consider `CN1CC[C@@H](NC(=O)Nc2ccc(C#N)cc2)C[C@@H]1c1nc2ccccc2[nH]1` [glasdegib], for which the Solubility was 1.7 mg/mL (≈ 4540 µM). `NC(=O)NO` [hydroxyurea]: the Solubility was 15 mg/mL (≈ 197000 µM). On to `CS(=O)(=O)CCNCc1ccc(-c2ccc3ncnc(Nc4ccc(OCc5cccc(F)c5)c(Cl)c4)c3c2)o1` [lapatinib], for which the Solubility was 0.007 mg/mL (≈ 12 µM).

The series is the same for the next values; noted with them: in water / aqueous media, in words.
Turning to `CCN1CCN(Cc2ccc(Nc3ncc(F)c(-c4cc(F)c5nc(C)n(C(C)C)c5c4)n3)nc2)CC1` [abemaciclib], the Solubility entry is listed as “insoluble in water”.

On to `CN(C)C/C=C/C(=O)Nc1cc2c(Nc3ccc(F)c(Cl)c3)ncnc2cc1O[C@H]1CCOC1` [afatinib], for which the Solubility entry is “water soluble”.

In the case of `CCc1cc2c(cc1N1CCC(N3CCOCC3)CC1)C(C)(C)c1[nH]c3cc(C#N)ccc3c1C2=O` [alectinib], the Solubility result was “insoluble in water”.

With `Cc1nc(NC(=O)N2CCC[C@H]2C(N)=O)sc1-c1ccnc(C(C)(C)C(F)(F)F)c1` [alpelisib], the Solubility result is “insoluble in water”.

With `O=C(Nc1ccc(OC(F)(F)Cl)cc1)c1cnc(N2CC[C@@H](O)C2)c(-c2ccn[nH]2)c1` [asciminib], the Solubility entry is given as “insoluble in water”. Consider `Cn1cc(-c2cc3c(N4CCN(c5ncc([C@@](C)(N)c6ccc(F)cc6)cn5)CC4)ncnn3c2)cn1` [avapritinib], for which the Solubility result is “insoluble in water”. For `Nc1ncn([C@@H]2O[C@H](CO)[C@@H](O)[C@H]2O)c(=O)n1` [azacitidine], the Solubility entry is reported as “water soluble”. For the molecule `CS(=O)(=O)c1ccc(Oc2cc(F)cc(C#N)c2)c2c1[C@H](O)[C@H](F)[C@@H]2F` [belzutifan], the Solubility result is on record as “insoluble in water”. As for `C=C(c1ccc(C(=O)O)cc1)c1cc2c(cc1C)C(C)(C)CCC2(C)C` [bexarotene], the Solubility entry is reported as “insoluble in water”. For `Cn1cnc2c(F)c(Nc3ccc(Br)cc3F)c(C(=O)NOCCO)cc21` [binimetinib], the Solubility result is given as “Slightly soluble at pH 1,”. On to `COc1cc(N2CCC(N3CCN(C)CC3)CC2)ccc1Nc1ncc(Cl)c(Nc2ccccc2P(C)(C)=O)n1` [brigatinib], for which the Solubility entry was “insoluble in water”.

For the molecule `CS(=O)(=O)OCCCCOS(C)(=O)=O` [busulfan], the Solubility result is “insoluble in water”. Take `Cc1cc(Nc2ncc(Cl)c(Nc3ccccc3S(=O)(=O)C(C)C)n2)c(OC(C)C)cc1C1CCNCC1` [ceritinib]: the Solubility result is “insoluble in water”. Consider `O=C(O)CCCc1ccc(N(CCCl)CCCl)cc1` [chlorambucil], for which the Solubility entry is listed as “insoluble in water”. On to `O=P1(N(CCCl)CCCl)NCCCO1` (centres unmarked) [cyclophosphamide], for which the Solubility result is “water soluble”. For the molecule `COc1cc2ncnc(Nc3ccc(F)c(Cl)c3)c2cc1NC(=O)/C=C/CN1CCCCC1` [dacomitinib], the Solubility result is reported as “insoluble in water”. Take `Cc1nc(Nc2ncc(C(=O)Nc3c(C)cccc3Cl)s2)cc(N2CCN(CCO)CC2)n1` [dasatinib]: the Solubility entry is “insoluble in water”. Regarding `CC(C)(O)CNc1nc(Nc2ccnc(C(F)(F)F)c2)nc(-c2cccc(C(F)(F)F)n2)n1` [enasidenib], the Solubility entry is “practically insoluble”. On to `COC(=O)N[C@@H](C)CNc1nccc(-c2cn(C(C)C)nc2-c2cc(Cl)cc(NS(C)(=O)=O)c2F)n1` [encorafenib], for which the Solubility result is listed as “slightly soluble at pH 1,”. Regarding `CN1CCN(c2ccc(C(=O)Nc3n[nH]c4ccc(Cc5cc(F)cc(F)c5)cc34)c(NC3CCOCC3)c2)CC1` [entrectinib], the Solubility entry is “insoluble in water”.

`C[C@]12CC[C@@H]3c4ccc(OC(=O)N(CCCl)CCCl)cc4CC[C@H]3[C@@H]1CC[C@@H]2OP(=O)(O)O` [estramustine phosphate]: the Solubility result is “water soluble”. On to `CO[C@H]1C[C@@H]2CC[C@@H](C)[C@@](O)(O2)C(=O)C(=O)N2CCCC[C@H]2C(=O)O[C@H]([C@H](C)C[C@@H]2CC[C@@H](OCCO)[C@H](OC)C2)CC(=O)[C@H](C)/C=C(\C)[C@@H](O)[C@@H](OC)C(=O)[C@H](C)C[C@H](C)/C=C/C=C/C=C/1C` [everolimus], for which the Solubility result is reported as “insoluble in water”. As to `CC(C)C(=O)Nc1ccc([N+](=O)[O-])c(C(F)(F)F)c1` [flutamide], the Solubility result is “insoluble in water”. For `C=CC(=O)N1CC[C@H](n2nc(C#Cc3cc(OC)cc(OC)c3)c3c(N)ncnc32)C1` [futibatinib], the Solubility entry was “insoluble in water”. Consider `CCCCCN(C)CCC(O)(P(=O)(O)O)P(=O)(O)O` [ibandronate sodium], for which the Solubility result was “water soluble”. As for `Nc1cccc2c1CN(C1CCC(=O)NC1=O)C2=O` (centres unmarked) [lenalidomide], the Solubility entry is on record as “insoluble in water”. For the molecule `COc1cc2nccc(Oc3ccc(NC(=O)NC4CC4)c(Cl)c3)c2cc1C(N)=O` [lenvatinib], the Solubility result is “slightly soluble in water”.

With `N[C@@H](Cc1cc(I)c(Oc2cc(I)c(O)c(I)c2)c(I)c1)C(=O)O` [levothyroxine sodium], the Solubility result is “insoluble in water”.

For the molecule `O=NN(CCCl)C(=O)NC1CCCCC1` [lomustine], the Solubility entry is “insoluble in water”. On to `CC(=O)O[C@]1(C(C)=O)CC[C@H]2[C@@H]3C[C@H](C)C4=CC(=O)CC[C@]4(C)[C@H]3CC[C@@]21C` [medroxyprogesterone acetate], for which the Solubility entry is “insoluble in water”. `Sc1ncnc2nc[nH]c12` [mercaptopurine]: the Solubility entry was “insoluble in water”. For `CN(Cc1cnc2nc(N)nc(N)c2n1)c1ccc(C(=O)N[C@@H](CCC(=O)O)C(=O)O)cc1` [methotrexate], the Solubility entry is recorded as “insoluble in water”.

Turning to `CO[C@@H]1[C@H](N(C)C(=O)c2ccccc2)C[C@H]2O[C@]1(C)n1c3ccccc3c3c4c(c5c6ccccc6n2c5c31)C(=O)NC4` [midostaurin], the Solubility entry is on record as “insoluble in water”. For `Clc1ccc(C(c2ccccc2Cl)C(Cl)Cl)cc1` (centres unmarked) [mitotane], the Solubility entry was “insoluble in water”. Take `O=C(c1cc(Cc2n[nH]c(=O)c3ccccc23)ccc1F)N1CCN(C(=O)C2CC2)CC1` [olaparib]: the Solubility result is “low solubility”. `Cc1nccn1CC1CCc2c(c3ccccc3n2C)C1=O` (centres unmarked) [ondansetron hydrochloride]: the Solubility entry is recorded as “water soluble”. On to `C=CC(=O)Nc1cc(Nc2nccc(-c3cn(C)c4ccccc34)n2)c(OC)cc1N(C)CCN(C)C` [osimertinib], for which the Solubility result was “insoluble in water”. Take `C1=C/COCc2cc(ccc2OCCN2CCCC2)Nc2nccc(n2)-c2cccc(c2)COC/1` [pacritinib]: the Solubility result is recorded as “insoluble in water”. For the molecule `Cc1ccc(Nc2nccc(N(C)c3ccc4c(C)n(C)nc4c3)n2)cc1S(N)(=O)=O` [pazopanib], the Solubility result was “insoluble in water”. For `CN(C)C(=O)c1cc2cnc(Nc3ccc(N4CCNCC4)cn3)nc2n1C1CCCC1` [ribociclib], the Solubility entry is listed as “insoluble in water”. In the case of `O=C(/C=C\n1cnc(-c2cc(C(F)(F)F)cc(C(F)(F)F)c2)n1)NNc1cnccn1` [selinexor], the Solubility entry is listed as “insoluble in water”.

The series is the same for the next values; noted with them: in water at 25° C.
Regarding `CONC(=O)Nc1ccc(-c2sc3c(c2CN(C)C)c(=O)n(-c2ccc(OC)nn2)c(=O)n3Cc2c(F)cccc2F)cc1` [relugolix], the Solubility is recorded as 0.04 mg per mL in.

Staying with this series, now noted: pH 1.
Consider `Cc1cnc(Nc2ccc(OCCN3CCCC3)cc2)nc1Nc1cccc(S(=O)(=O)NC(C)(C)C)c1` [fedratinib], for which the Solubility result is on record as “condition (>100 mg/mL”.

Still in this series, the particulars now being: pH 1.0 solution at 37° C.
Regarding `C=CC(=O)Nc1cc(Nc2ncc(C(=O)OC(C)C)c(-c3cn(C)c4ccccc34)n2)c(OC)cc1N(C)CCN(C)C` [mobocertinib], the Solubility result is reported as “solubility of 152 mg/mL”.

Still in this series, the particulars now being: pH 1.2.
`C=C(F)C(=O)N1CCN(c2nc(OC[C@@H]3CCCN3C)nc3c2CCN(c2cccc4cccc(Cl)c24)C3)C[C@@H]1CC#N` [adagrasib]: the Solubility result is on record as “from >262 mg/mL”. As for `CCOc1cc2ncc(C#N)c(Nc3ccc(OCc4ccccn4)c(Cl)c3)c2cc1NC(=O)/C=C/CN(C)C` [neratinib], the Solubility was 1.2 (32.90 mg/mL) and.

Staying with this series, now noted: pH 1.6.
In the case of `C[C@@H](Oc1cc(-c2cnn(C3CCNCC3)c2)cnc1N)c1c(Cl)ccc(F)c1Cl` [crizotinib], the Solubility result is given as “greater than 10 mg/mL”.

The same series, now with this note: pH 7.4.
`Cc1cnc(Nc2ccc(OCCN3CCCC3)cc2)nc1Nc1cccc(S(=O)(=O)NC(C)(C)C)c1` [fedratinib]: the Solubility result is reported as “(4 mcg/mL at pH 7.4)”.
